Laboratory results taken from PMC10089289, “Well-Defined Heparin Mimetics Can Inhibit Binding of the Trimeric Spike of SARS-CoV-2 in a Length-Dependent Manner” (JACS Au, 2023).

Target: SARS-CoV-2 Delta RBD binding to Vero E6 cells (Severe acute respiratory syndrome coronavirus 2, UniProt P0DTC2, L452R/T478K)
Type: cell-based

NCCCCCOC1OC(COS(=O)(=O)O)C(OC2OC(C(=O)O)C(OC3OC(COS(=O)(=O)O)C(OC4OC(C(=O)O)C(OC5OC(COS(=O)(=O)O)C(OC6OC(C(=O)O)C(O)C(O)C6O)C(O)C5NS(=O)(=O)O)C(O)C4OS(=O)(=O)O)C(O)C3NS(=O)(=O)O)C(O)C2OS(=O)(=O)O)C(O)C1NS(=O)(=O)O (stereo not shown) [Compound 1, GlcA-GlcNS6S-IdoA2S-GlcNS6S-IdoA2S-GlcNS6S]
Inhibition of delta RBD binding to Vero E6 cells: does not display inhibition
